Results reported in ChEMBL document CHEMBL3045684, “Compatibility of traditional and novel acaricides with bumblebees (Bombus terrestris): a first laboratory assessment of toxicity and sublethal effects” (Pest Manag Sci, 2010).
Calls of active or inactive are those of the source. The rule behind the calls is not given here.

Assays:
[1] = system: Bombus terrestris; assay: Contact toxicity against worker Bombus terrestris (bumblebee) assessed as reduction in reproduction at 200 mg a.i./l applied on the dorsal thorax for 11 weeks measured once a week for 11 weeks relative to control; assay type: functional, organism-based
[2] = system: Bombus terrestris; assay: Toxicity against worker Bombus terrestris (bumblebee) assessed as mortality at 200 mg a.i./l, po administered through pollen for 11 weeks measured everyday for 3 days followed by once a week for 11 weeks; assay type: functional
[3] = system: Bombus terrestris; assay: Contact toxicity against worker Bombus terrestris (bumblebee) assessed as mortality at 200 mg a.i./l applied on the dorsal thorax for 11 weeks measured everyday for 3 days followed by once a week for 11 weeks; assay type: functional
[4] = system: Apis mellifera; assay: Contact toxicity against Apis mellifera (honey bee) assessed per bee; assay type: functional
[5] = system: Bombus terrestris; assay: Toxicity against worker Bombus terrestris (bumblebee) assessed as mortality at 200 mg a.i./l, po administered through sugar water for 11 weeks measured everyday for 3 days followed by once a week for 11 weeks; assay type: functional
[6] = system: Bombus terrestris; assay: Toxicity against worker Bombus terrestris (bumblebee) assessed as reduction in reproduction at 200 mg a.i./l, po administered through pollen for 11 weeks measured once a week for 11 weeks; assay type: functional; design: scale not given: the % may be the effect or the level left
[7] = system: Bombus terrestris; assay: Contact toxicity against Bombus terrestris (bumblebee) assessed per bee; assay type: functional
[8] = system: Bombus terrestris; assay: Toxicity against worker Bombus terrestris (bumblebee) assessed as reduction in reproduction at 500 mg a.i./l, po administered through pollen for 11 weeks measured once a week for 11 weeks; assay type: functional; design: scale not given: the % may be the effect or the level left
[9] = system: Bombus terrestris; assay: Toxicity against worker Bombus terrestris (bumblebee) assessed as mortality at 500 mg a.i./l, po administered through sugar water for 11 weeks measured everyday for 3 days followed by once a week for 11 weeks; assay type: functional
[10] = system: Bombus terrestris; assay: Toxicity against worker Bombus terrestris (bumblebee) assessed as mortality at 500 mg a.i./l, po administered through pollen for 11 weeks measured everyday for 3 days followed by once a week for 11 weeks; assay type: functional, organism-based
[11] = system: Bombus terrestris; assay: Contact toxicity against worker Bombus terrestris (bumblebee) assessed as reduction in reproduction at 500 mg a.i./l applied on the dorsal thorax for 11 weeks measured once a week for 11 weeks relative to control; assay type: functional, organism-based
[12] = system: Bombus terrestris; assay: Contact toxicity against worker Bombus terrestris (bumblebee) assessed as mortality at 500 mg a.i./l applied on the dorsal thorax for 11 weeks measured everyday for 3 days followed by once a week for 11 weeks; assay type: functional
[13] = system: Bombus terrestris; assay: Toxicity against worker Bombus terrestris (bumblebee) assessed as reduction in reproduction at 500 mg a.i./l, po administered through sugar water for 11 weeks measured once a week for 11 weeks relative to control; assay type: functional, organism-based
[14] = system: Bombus terrestris; assay: Contact toxicity against worker Bombus terrestris (bumblebee) assessed as mortality at 10 mg a.i./l applied on the dorsal thorax for 11 weeks measured everyday for 3 days followed by once a week for 11 weeks; assay type: functional
[15] = system: Bombus terrestris; assay: Toxicity against worker Bombus terrestris (bumblebee) assessed as mortality at 10 mg a.i./l, po administered through pollen for 11 weeks measured everyday for 3 days followed by once a week for 11 weeks; assay type: functional, organism-based
[16] = system: Bombus terrestris; assay: Contact toxicity against worker Bombus terrestris (bumblebee) assessed as reduction in reproduction at 10 mg a.i./l applied on the dorsal thorax for 11 weeks measured once a week for 11 weeks relative to control; assay type: functional, organism-based
[17] = system: Bombus terrestris; assay: Toxicity against worker Bombus terrestris (bumblebee) assessed as mortality at 10 mg a.i./l, po administered through sugar water for 11 weeks measured everyday for 3 days followed by once a week for 11 weeks; assay type: functional
[18] = system: Bombus terrestris; assay: Contact toxicity against worker Bombus terrestris (bumblebee) assessed as reduction in reproduction at 100 mg a.i./l applied on the dorsal thorax for 11 weeks measured once a week for 11 weeks relative to control; assay type: functional, organism-based
[19] = system: Bombus terrestris; assay: Toxicity against worker Bombus terrestris (bumblebee) assessed as reduction in reproduction at 10 mg a.i./l, po administered through pollen for 11 weeks measured once a week for 11 weeks; assay type: functional; design: scale not given: the % may be the effect or the level left
[20] = system: Bombus terrestris; assay: Contact toxicity against worker Bombus terrestris (bumblebee) assessed as mortality at 100 mg a.i./l applied on the dorsal thorax for 11 weeks measured everyday for 3 days followed by once a week for 11 weeks; assay type: functional
[21] = system: Bombus terrestris; assay: Toxicity against worker Bombus terrestris (bumblebee) assessed as reduction in reproduction at 100 mg a.i./l, po administered through sugar water for 11 weeks measured once a week for 11 weeks relative to control; assay type: functional, organism-based
[22] = system: Bombus terrestris; assay: Toxicity against worker Bombus terrestris (bumblebee) assessed as mortality at 100 mg a.i./l, po administered through pollen for 11 weeks measured everyday for 3 days followed by once a week for 11 weeks; assay type: functional
[23] = system: Bombus terrestris; assay: Toxicity against worker Bombus terrestris (bumblebee) assessed as reduction in reproduction at 200 mg a.i./l, po administered through sugar water for 11 weeks measured once a week for 11 weeks relative to control; assay type: functional, organism-based
[24] = system: Bombus terrestris; assay: Toxicity against worker Bombus terrestris (bumblebee) assessed as reduction in reproduction at 10 mg a.i./l, po administered through sugar water for 11 weeks measured once a week for 11 weeks relative to control; assay type: functional, organism-based
[25] = system: Bombus terrestris; assay: Toxicity against worker Bombus terrestris (bumblebee) assessed as mortality at 100 mg a.i./l, po administered through sugar water for 11 weeks measured everyday for 3 days followed by once a week for 11 weeks; assay type: functional
[26] = system: Bombus terrestris; assay: Toxicity against worker Bombus terrestris (bumblebee) assessed as reduction in reproduction at 100 mg a.i./l, po administered through pollen for 11 weeks measured once a week for 11 weeks; assay type: functional; design: scale not given: the % may be the effect or the level left
[27] = system: Bombus terrestris; assay: Toxicity against worker Bombus terrestris (bumblebee) assessed as mortality at 150 mg a.i./l, po administered through sugar water for 11 weeks measured everyday for 3 days followed by once a week for 11 weeks; assay type: functional
[28] = system: Bombus terrestris; assay: Contact toxicity against worker Bombus terrestris (bumblebee) assessed as reduction in reproduction at 150 mg a.i./l applied on the dorsal thorax for 11 weeks measured once a week for 11 weeks relative to control; assay type: functional, organism-based
[29] = system: Bombus terrestris; assay: Toxicity against worker Bombus terrestris (bumblebee) assessed as mortality at 150 mg a.i./l, po administered through pollen for 11 weeks measured everyday for 3 days followed by once a week for 11 weeks; assay type: functional, organism-based
[30] = system: Bombus terrestris; assay: Toxicity against worker Bombus terrestris (bumblebee) assessed as reduction in reproduction at 150 mg a.i./l, po administered through pollen for 11 weeks measured once a week for 11 weeks; assay type: functional; design: scale not given: the % may be the effect or the level left
[31] = system: Bombus terrestris; assay: Toxicity against worker Bombus terrestris (bumblebee) assessed as reduction in reproduction at 150 mg a.i./l, po administered through sugar water for 11 weeks measured once a week for 11 weeks relative to control; assay type: functional, organism-based
[32] = system: Bombus terrestris; assay: Contact toxicity against worker Bombus terrestris (bumblebee) assessed as mortality at 150 mg a.i./l applied on the dorsal thorax for 11 weeks measured everyday for 3 days followed by once a week for 11 weeks; assay type: functional

SMILES | Activity [1] | mortality at 200 µg/mL [2] [%] | mortality at 200 µg/mL [3] [%] | LD50 [4] [µg] | mortality at 200 µg/mL [5] [%] | Activity [6] [%] | LD50 [7] [µg] | mortality at 10 µg/mL [14] [%] | Activity [15] | Activity [16] | mortality at 10 µg/mL [17] [%] | also measured
CC(C)(C)c1ccc(CCOc2ncnc3ccccc23)cc1 [FENAZAQUIN] | inactive | 90 | < 25 | <1 | 25 | 50 | >100 | – | – | – | – | –
ClC1=C(Cl)C(Cl)(C2(Cl)C(Cl)=C(Cl)C(Cl)=C2Cl)C(Cl)=C1Cl [DIENOCHLOR] | – | – | – | – | – | – | – | – | – | – | – | Activity [8]: 50%; mortality at 500 µg/mL [9]: 85%; Activity [10]: inactive; Activity [11]: inactive; mortality at 500 µg/mL [12]: < 25%; Activity [13]: Active
C/C1=C\C[C@@H]2C[C@@H](C[C@]3(CC[C@H](C)[C@@H](C)O3)O2)OC(=O)[C@@H]2CC[C@@H](O)[C@H]3OC/C(=C\C=C\[C@H](C)C1)[C@]32O [MILBEMECTIN] | – | – | – | <1 | – | – | >100 | < 25 | inactive | inactive | < 25 | –
CCc1nn(C)c(C(=O)NCc2ccc(C(C)(C)C)cc2)c1Cl [TEBUFENPYRAD] | inactive | 90 | < 25 | – | 50 | 50 | – | < 25 | inactive | inactive | 50 | Activity [18]: inactive; Activity [19]: 50%; mortality at 100 µg/mL [20]: < 25%; Activity [21]: Active; mortality at 100 µg/mL [22]: 90%; Activity [23]: Active; Activity [24]: Active; mortality at 100 µg/mL [25]: 50%; Activity [26]: 50%
CCCCCCCCCCCCC1=C(OC(C)=O)C(=O)c2ccccc2C1=O [ACEQUINOCYL] | – | – | – | – | – | – | – | – | – | – | – | mortality at 150 µg/mL [27]: < 25%; Activity [28]: Active; Activity [29]: inactive; Activity [30]: 50%; Activity [31]: Active; mortality at 150 µg/mL [32]: < 25%
